Tested on: mononuclear phagocytes
Assay: Phosphoproteomic analysis of GM-CSF differentiated human monocytes incubated with MCTR3 vs vehicle
Format: cell-based
Protocol: FIG. 5: MCTR3 reprograms the arthritic monocyte-derive macrophage transcriptome. A-B) Arthritis was induced and prolonged in C57BL/6 mice by administering 100 μL K/B×N serum i.p. on day 0, 2 and 9. Mice were treated on day 12 i.v. with 2×10^6 monocytes isolated from arthritic mice and incubated either with vehicle (PBS+0.1% DMSO) or 10 μM RG108, a DNMT inhibitor, for 15 min and then with a vehicle (PBS+0.1% EtOH) or 1 nM MCTR3 for 90 min (37° C.). Disease course was monitored daily by assessing A) clinical scores and B) oedema. Results are mean±SEM and expressed as percent change from day of treatment. n=10 mice per group. Statistical differences were evaluated using Two-way ANOVA. (C-E) K/B×N serum (100 μL, i.p.) was administered to mice on days 0, 2 and 9 to induce and prolong inflammatory arthritis. On day 12, mice were treated i.v. with 2×10^6 monocytes isolated from arthritic mice that were previously incubated with either vehicle (PBS+0.1% EtOH) or 1 nM MCTR3 for 90 min. Cells were isolated from paw joints on day 22, sorted for CD45^+ cells and single cell RNA sequencing was performed. […] Results are from n=4 mice per group. (F-G) Monocytes were isolated from human healthy volunteers, these cells were then incubated with GM-CSF (7 days, 37° C.) then with either Vehicle or MCTR3 (1 nM, 37° C.). Cells were lysed and the phosphoproteome determined using mass spectrometry. (F) GO Biological pathway analysis and (G) KEGG pathway analysis for proteins found to be differentially phosphorylated in cells incubated with MCTR3 when compared to those incubated with vehicle. Results are representative of cells from n=3 healthy volunteers per group
To further explore the mechanisms regulated by MCTR3 to reprogram mononuclear phagocytes we next evaluated the signaling pathways activated by MCTR3 using a phosphoproteomic approach. […] This regulation was also observed when using the Kyoto Encyclopaedia of Genes and Genomes pathway database that highlighted an enrichment of spliceosome linked proteins as well as proteins involved in mRNA surveillance by MCTR3. (FIG. 5G and Table 7). […] These findings indicate that MCTR3 promotes the reprograming of mononuclear phagocytes by both regulating epigenetic programs and protein translation to facilitate the termination of inflammation and joint protection. They also support the hypothesis that MCTR3-reprogrammed monocytes recruited into arthritic joints exert their activities via the upregulation of tissue protective pathways. […]
For evaluation of signalling pathways activated by MCTR3, monocytes were isolated from peripheral blood of healthy volunteers, incubated with GM-CSF (20 ng/ml, in RPMI containing 10% human serum) for 7 days and then incubated with MCTR3 (1 nM, in DPBS^+/+).
Phosphoproteomics experiments were performed using mass spectrometry. In brief, cells were lysed in 8M urea buffer and supplemented with phosphatase inhibitors (10 mM Na3VO4, 100 mM B-glycerol phosphate and 25 mM Na2H2P2O7 (Sigma)). Proteins were digested into peptides using trypsin. Phosphopeptides were enriched from total peptides by TiO2 chromatography. Dried phosphopeptides were dissolved in 0.1% TFA and analysed by nanoflow ultimate 3000 RSL nano instrument was coupled on-line to a Q Exactive plus mass spectrometer (Thermo Fisher Scientific). Gradient elution was from 3% to 35% buffer B in 120 min at a flow rate 300 nL/min with buffer A being used to balance the mobile phase (buffer A was 0.1% formic acid in water and B was 0.1% formic acid in acetonitrile). The spray voltage was 1.95 kV and the capillary temperature was set to 255° C. The Q-Exactive plus was operated in data dependent mode with one survey MS scan followed by 15 MS/MS scans. The full scans were acquired in the mass analyser at 375-1500m/z with the resolution of 70 000, and the MS/MS scans were obtained with a resolution of 17 500. […]

[1] = KEGG Pathway, differentially phosphorylated proteins, 1 nM MCTR3 vs vehicle
[2] = Reactome Gene Sets, differentially phosphorylated proteins, 1 nM MCTR3 vs vehicle

SMILES: CC/C=C\C/C=C\C[C@H](O)[C@@H](/C=C/C=C/C=C\C/C=C\CCC(=O)O)SC[C@H](N)C(=O)O [MCTR3, 13R-cysteinyl, 14S-hydroxy-4Z, 7Z, 9E, 11E, 13R, 14S, 16Z, 19Z-docosahexaenoic acid]
- phosphorylation status of SETD2, Histone deacetylase 1 and Histone deacetylase 2 (1 nM MCTR3): regulated
- proteins involved in post-transcriptional regulation and protein translation (differential phosphorylation, GO analysis) (1 nM MCTR3): marked regulation
- Endocytosis (ko04144) enrichment LogP [1]: −3.117
- Fc gamma R-mediated phagocytosis (ko04666) enrichment LogP [1]: −2.545
- Glycolysis, core module involving three-carbon compounds (M00002) enrichment LogP [1]: −4.6043
- Guanine ribonucleotide biosynthesis IMP => GDP, GTP (M00050) enrichment LogP [1]: −3.0343
- Herpes simplex infection (ko05168) enrichment LogP [1]: −2.0881
- Neurotrophin signaling pathway (ko04722) enrichment LogP [1]: −2.6025
- Notch signaling pathway (ko04330) enrichment LogP [1]: −4.0393
- Spliceosome (hsa03040) enrichment LogP [1]: −7.662
- Transcriptional misregulation in cancer (ko05202) enrichment LogP [1]: −2.704
- mRNA surveillance pathway (ko03015) enrichment LogP [1]: −3.284
- parathyroid hormone synthesis, secretion and action (hsa04928) enrichment LogP [1]: −2.088
- Apoptotic execution phase (R-HSA-75153) enrichment LogP [2]: −3.842
- COPII-mediated vesicle transport (R-HSA-204005) enrichment LogP [2]: −2.4
- Diseases of signal transduction by growth factor receptors and second messengers (R-HSA-5663202) enrichment LogP [2]: −4.434
- Estrogen-dependent gene expression (R-HSA-9018519) enrichment LogP [2]: −2.633
- Formation of RNA Pol II elongation complex (R-HSA-112382) enrichment LogP [2]: −4.381
- Initiation of Nuclear Envelope (NE) Reformation (R-HSA-2995383) enrichment LogP [2]: −3.748
- Interferon gamma signaling (R-HSA-877300) enrichment LogP [2]: −2.545
- Nervous system development (R-HSA-9675108) enrichment LogP [2]: −3.151
- Neutrophil degranulation (R-HSA-6798695) enrichment LogP [2]: −2.465
- Prolonged ERK activation events (R-HSA-169893) enrichment LogP [2]: −2.935
- RHO GTPase Effectors (R-HSA-195258) enrichment LogP [2]: −3.726
- Regulation of MECP2 expression and activity (R-HSA-9022692) enrichment LogP [2]: −6.229
- SUMO E3 ligases SUMOylate target proteins (R-HSA-3108232) enrichment LogP [2]: −6.009
- Signaling by NTRKs (R-HSA-166520) enrichment LogP [2]: −5.116
- TRAF3-dependent IRF activation pathway (R-HSA-918233) enrichment LogP [2]: −2.935
- Transcriptional Regulation by TP53 (R-HSA-3700989) enrichment LogP [2]: −7.191
- Vesicle-mediated transport (R-HSA-5653656) enrichment LogP [2]: −6.611
- p75 NTR receptor-mediated signalling (R-HSA-193704) enrichment LogP [2]: −6.512
